The nature of series [1]: Stress experiments (physical stability under temperature, humidity, grinding; XRPD after stress). The series is classed as physicochemical. As to conditions: for KF Result after stress: Karl Fischer water; for weight loss under stress: 3 days. Here is the method: A solid sample was placed into a stainless steel milling rotor with a small metal ball. […] The sample was then ground at 30 Hz on a Retesh type MM220 mixermill for approximately 20 minutes. The resulting solids were isolated and analyzed.
A solid sample was placed into a stainless steel grinding jar with a grinding rod. The sample was then ground at 15 Hz on a SPEX Certiprep model 6750 cryomill for a set amount of time. The grinding jar was submerged in a bath of liquid nitrogen during the experiment. The solids were isolated and analyzed.
Solids were stressed under different temperature and/or relative humidity (RH) environments for a measured time period. Specific RH values were achieved by placing the samples inside sealed chambers containing saturated salt solutions or inside ESPEC temperature and humidity cabinets. The salt solutions were selected and prepared following an ASTM standard procedure. Samples were analyzed by XRPD immediately after removal from the stress environment. […]

For series [2] the following is noted: cynomolgus monkey, in vivo, po, 4.1 mg/kg.
Series [3] in a line: Hygroscopicity (dynamic vapor sorption/desorption). The format is physicochemical. Here is the method:
Moisture sorption/desorption data were collected on a VTI SGA-100 Vapor Sorption Analyzer. Sorption and desorption data were collected over a range of 5% to 95% relative humidity (RH) at 10% RH intervals under a nitrogen purge. Samples were not dried prior to analysis. Equilibrium criteria used for analysis were less than 0.010% weight change in 5 minutes, with a maximum equilibration time of 3 hours if the weight criterion was not met. Data were not corrected for the initial moisture content of the samples. Sodium chloride and polyvinypyrrolidine were used as calibration standards.

Series [4] in a line: Phases 2 and 3: single oral administration of CDDO-methyl ester capsule formulations, concentrations by HPLC-MS/MS. The series is classed as in vivo, Cynomolgus monkeys, Macaca fascicularis. As to conditions: phases 2 and 3, PO capsule 10 mg/kg; compared with the micronized and nanocrystalline Form A formulations. Here is the method:
An aqueous suspension of nanocrystalline CDDO-Me was produced, starting from a sample of micronized Form A material. A Retsch® Planatory Ball Mill model PM 400, containing zirconia balls of 2 mm average size, was charged with 25 gm of micronized CDDO-Me (average particle size distribution of 6.1 uM), 5 gm of docusate sodium, 1 gm of Tween 80, and 68.3 gm of water. Grinding was initiated at approximately 400 RPM and was continued for 2 hours. A particle size distribution (PSD) determination using a laser light granulometer indicated an average PSD of 0.37 μM was obtained. To this thick suspension were added 1 gm of microcrystalline cellulose and 0.2 gm of […] gum, with brief mixing, and the suspension was stored refrigerated. […] The table below presents the quantitative composition of both formulations. […] The quantitative composition of each formulation appears below. […] Serial blood samples (approximately 1 mL) were removed from the femoral vein or artery of each animal and transferred into tubes containing K2-EDTA at each of the following time points (actual times were recorded): All samples were thoroughly mixed following collection and placed on wet ice, prior to being refrigerated at approximately 4° C. CDDO-methyl ester concentrations in blood were analysed by HPLC-MS/MS.

The mark [5] stands for this setting: 25° C./75% RH, 28 d, micronized.
Setting [6] is: 40° C./48% RH, 28 d, micronized.
[7] abbreviates: 60° C./23% RH, 28 d, micronized.

Each structure is given as a SMILES string. Marks after values point to notes of the source that are not given here.

Turning to `COC(=O)[C@]12CCC(C)(C)C[C@H]1[C@H]1C(=O)C=C3[C@@]4(C)C=C(C#N)C(=O)C(C)(C)[C@@H]4CC[C@@]3(C)[C@]1(C)CC2` [FORM B PRODUCED BY ISOLATION FROM ETHYL ACETATE AND ETHANOL ], the “XRPD RESULT after stress” value is “Form B” in series [1] (setting [5]); “Form B” in series [1] (setting [6]); roughly 50% Form A + in series [1] (setting [7]); 100% Form A in series [1] (80° C./P2O5, 28 d, micronized). Also, the KF Result after stress is 0.58% in series [1] (setting [5]); 0.39% in series [1] (setting [6]); 0.02% in series [1] (setting [7]); 0.37% in series [1] (80° C./P2O5, 28 d, micronized). Further, the “form after stress testing (summary of Table 15)” value in series [1] (28 days of storage, Form A seen at 60° C. and above) is listed as “formation of Form A”.
For `COC(=O)[C@]12CCC(C)(C)C[C@H]1[C@H]1C(=O)C=C3[C@@]4(C)C=C(C#N)C(=O)C(C)(C)[C@@H]4CC[C@@]3(C)[C@]1(C)CC2` [FORM B PRODUCED VIA EXAMPLE 11 PROCEDURE], the “XRPD RESULT after stress” value in series [1] (25° C./75% RH, 14 d, micronized) is reported as “Form B”; in series [1] (setting [5]), “Form B”; in series [1] (setting [6]), “Form B”; in series [1] (setting [7]) it was “Form B”; in series [1] (80° C./P2O5, 14 d, micronized), “Form B”; in series [1] (80° C./P2O5, 28 d, micronized) it was “Form B”. Further, the KF Result after stress in series [1] (setting [5]) is 0.77%; in series [1] (setting [6]) it was 0.00^b; in series [1] (setting [7]), 0.04%; in series [1] (80° C./P2O5, 28 d, micronized), 1.1%.
For the compound `COC(=O)C12CCC(C)(C)CC1C1C(=O)C=C3C4(C)C=C(C#N)C(=O)C(C)(C)C4CCC3(C)C1(C)CC2` (stereo not shown) [Form A, methyl 2-cyano-3,12-dioxoleana-1,9(11)-dien-28-oate], in series [2], the “AUC, Mean” value is 40.4 ng·h/mL. Further, the “AUC, Median” value in series [2] worked out at 37.4 ng·h/mL. Moreover, the “AUC, Range (min-max)” value in series [2] is 21 to 60.4 ng·h/mL. Besides, the hygroscopicity entry in series [3] was “not hygroscopic”. Also, the “MB / DVS weight change” value in series [3] (5% to 95% RH sorption/desorption) is listed as “Negligible weight change throughout experiment”. The “Post MB XRPD” value in series [3] (material after DVS experiment) is “Form A”. Besides, the “weight loss under stress” value in series [1] (25° C./60% RH) is reported as 3 days: 1.5% loss; in series [1] (40° C./75% RH), 3 days: 1.4% loss. The “XRPD RESULT after stress” value in series [1] (25° C./60% RH, 7 days) was “remained Form A”; in series [1] (40° C./75% RH, 7 days) it was “remained Form A”; in series [1] (20 min grind, dry (ball mill)), “remained Form A”; in series [1] (20 min wet grind, water (ball mill)), “remained Form A”.
`COC(=O)C12CCC(C)(C)CC1C1C(=O)C=C3C4(C)C=C(C#N)C(=O)C(C)(C)C4CCC3(C)C1(C)CC2` (stereo not shown) [Form B, methyl 2-cyano-3,12-dioxoleana-1,9(11)-dien-28-oate]: in series [2], the “% Form B over Form A (AUC), Mean” value is 439%; the “% Form B over Form A (AUC), Median” value was 523%; the “% Form B over Form A (AUC), Range (min-max)” value was 262-723%; the “AUC, Mean” value was 177.2 ng·h/mL. In series [2], the “AUC, Median” value is 175.0 ng·h/mL; the “AUC, Range (min-max)” value lay within 158 to 228 ng·h/mL; the “median exposure greater than the equivalent dose of Form A” value is “approximately 520%”. Besides, in series [3], the hygroscopicity result is “not hygroscopic”. Besides, in series [4], the “bioavailability, comparison of formulations” value was “significantly better bioavailability”. Besides, the “XRPD RESULT after stress” value in series [1] (22° C./97% RH, 7 days) is reported as “remained Form B”. For the same compound, the “XRPD RESULT after stress” value in series [1] (40° C./75% RH, 8 days) is recorded as “remained Form B”. The “XRPD RESULT after stress” value in series [1] (80° C./0% RH, ~24 hours) is listed as “remained Form B”. Moreover, the “XRPD RESULT after stress” value in series [1] (195° C., 5 minutes, ambient RH (74% RH)) was “remained Form B”. For the same compound, the “XRPD RESULT after stress” value in series [1] (200° C., 60 minutes, ambient RH (74% RH), min = minor) was “Form A plus minor Form B”. For the same compound, the form after cryogrinding result in series [1] (cryogrinding 1 hour) is “stable and does not change Form”.

(Values after patent publication US8633243B2, “Forms of CDDO methyl ester” (priority 2007, dated 2014).)
